1 compound from US20190112357A1, “PREVENTION OF PROTEIN DISULFIDE BOND REDUCTION” (MedImmune, LLC, priority 2016, published 2019) can be followed below.

Common to all, as to assay type: physicochemical
Data set [1] can be described thus: Non-reduced GX (NR-GX) analysis of HCCF and purification products. The conditions noted are these: 2 weeks at 2° C.-8° C., bags without headspace. On the procedure: Samples were stored frozen until analyzed. Once thawed, 400-600 μL of each sample was transferred to culture tubes and mixed in non-reducing sample buffer containing N-Ethylmaleimide (NEM). After being denatured and the free thiols being capped by NEM, the samples were analyzed using a Perkin Elmer Labchip® GXII (Perkin Elmer, Waltham, Mass.) to perform size fractionation and quantification. Using the Labchip® GXII, the protein and fragments were detected by laser-induced fluorescence and translated into gel-like images (bands) and electropherograms (peaks).
The high levels of impurities were first detected in the capture product and were carried through the subsequent steps in the process.

A short description of data set [2]: Free thiol quantitation in HCCF by disulfide mapping mass spectrometry. As to conditions: 2 mM cystine, 2 week hold, versus starting material. On the procedure: The amount of free thiol in harvested cell culture fluid was determined by matching predicted masses of disulfide-linked peptides to observed masses from non-reducing Lys-C peptide mapping. Briefly, the sample was denatured and diluted prior to digestion with a serine protease. Following protease digestion, half of each reaction mixture was reduced by the addition of DTT. The digests were separated by RP-HPLC using a C18 column and analyzed using a UV-detector and an on-line mass spectrometer. Disulfide-bond linked peptides are only present in non-reducing runs and will disappear under reducing conditions.

A short description of data set [3]: Antibody reduction potential assay (Vacuum/GX). As to conditions: EDTA 9.5, 19, 38 mM or Cystine 4 and 8 mM. As to the method: Bioreactor samples (1 mL) were obtained daily and centrifuged at 3000-4000 RPM and the supernatant was frozen immediately at −80° C. On the day prior to the assay, the samples were removed from −80° C. storage, thawed, and placed in a vacuum chamber at room temperature overnight to induce reduction of the monoclonal antibody without the interference of oxygen. After the vacuum hold, the samples were analyzed for protein fragmentation under non-reducing conditions using a BioAnalyzer system (Agilent Technologies) or a LABCHIP® GXII system (PerkinElmer) to detect antibody fragments resulting from the breakage of the antibody's interchain disulfide bonds. […]
Samples were stored frozen until analyzed. […] After being denatured and the free thiols being capped by NEM, the samples were analyzed using a Perkin Elmer Labchip® GXII (Perkin Elmer, Waltham, Mass.) to perform size fractionation and quantification. Using the Labchip® GXII, the protein and fragments were detected by laser-induced fluorescence and translated into gel-like images (bands) and electropherograms (peaks).
Reduction potential, i.e. the potential of the molecule to be reduced under anaerobic condition, was measured by subjecting samples to vacuum analysis as described above followed addition of non-reducing sample buffer. […]

The nature of data set [4]: Antibody aggregation analysis (HP-SEC). As to conditions: EDTA 9.5, 19, 38 mM or Cystine 4 and 8 mM. As to the method: The percent of antibody aggregates was determined using standard size exclusion chromatography (HP-SEC) methods. An Agilent 1200 series system was used with a Tosoh Bioscience TSKgel G3000SW XL column (Tosoh Bioscience LLC, King of Prussia, Pa.) (7.8 mm×300 mm) at 1 mL/min flow rate using a mobile phase buffer of 0.1 M sodium phosphate, 0.1 M sodium sulfate, pH 6.8. The absorbance chromatography at 280 nm was used to quantify the results.
On the technique in general: In gel filtration, larger molecules generally elute earlier.

Take `N[C@@H](CSSC[C@H](N)C(=O)O)C(=O)O` [cystine, L-cystine]: the “reduction of mAb B in HCCF by the end of the hold (NR-GX)” value in data set [1] (2 mM cystine) is on record as “reduction had set in”; in data set [1] (4 mM cystine) it was “no signs of reduction”. Moreover, in data set [2], the “inter-chain free thiol in HCCF by the end of the hold” value is on record as “higher level of inter-chain free thiol”. Moreover, the “reduction potential at the time of harvest of sheared mAb E material” value in data set [3] is on record as “no reduction potential”. Further, the “aggregation of sheared mAb E material after 8 days at 2-8° C.” value in data set [4] is “limited the extent of mAb aggregation”.
